Assays:
5-LO = biological target: T1, 5-LO (Homo sapiens, UniProt P09917); test: 5-LO product formation in activated PMNL; assay type: cell-based; set-up: Freshly isolated PMNL (1 × 10^7); endogenous in cells; host or cells: human PMNL freshly isolated from leukocyte concentrates
T1 sequence (P09917 1-674): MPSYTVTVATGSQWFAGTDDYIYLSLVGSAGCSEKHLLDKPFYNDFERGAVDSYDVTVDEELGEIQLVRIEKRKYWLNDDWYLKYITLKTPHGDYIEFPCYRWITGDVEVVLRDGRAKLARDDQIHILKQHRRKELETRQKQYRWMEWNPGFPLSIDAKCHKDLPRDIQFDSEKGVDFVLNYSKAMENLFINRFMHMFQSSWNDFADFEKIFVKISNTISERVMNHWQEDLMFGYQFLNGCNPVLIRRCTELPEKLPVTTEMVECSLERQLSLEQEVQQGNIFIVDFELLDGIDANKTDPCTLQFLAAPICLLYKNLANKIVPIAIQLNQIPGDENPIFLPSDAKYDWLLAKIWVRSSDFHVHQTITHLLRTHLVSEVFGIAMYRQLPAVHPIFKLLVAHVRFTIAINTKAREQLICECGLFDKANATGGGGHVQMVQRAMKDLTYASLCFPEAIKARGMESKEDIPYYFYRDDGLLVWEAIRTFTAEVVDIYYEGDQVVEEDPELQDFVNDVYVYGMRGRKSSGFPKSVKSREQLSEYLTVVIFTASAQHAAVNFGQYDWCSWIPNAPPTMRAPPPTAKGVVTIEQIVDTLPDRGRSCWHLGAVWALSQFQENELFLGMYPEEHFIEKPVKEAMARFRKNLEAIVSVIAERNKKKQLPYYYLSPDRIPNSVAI
Text: Human PMNL, monocytes, PBMC, and platelets were freshly isolated from leukocyte concentrates. The protocols for experiments with human blood and blood cells were approved by the ethical commission of the Friedrich-Schiller-University Jena. […] PMNL were recovered from the pellet after hypotonic lysis of erythrocytes. Platelets were obtained from the supernatant and washed with PBS pH 5.9/0.9% NaCl (1:1). […]

[1] = biological target: T2, human recombinant LTC4 synthase (LTC4S) (Homo sapiens, UniProt Q16873); test: LTC4 synthase activity; assay type: biochemical
T2 construct: expressed in transfected cells; host or cells: HEK-293 cells stably expressing LTC4S (microsomal membranes)
T2 sequence (Q16873 1-150): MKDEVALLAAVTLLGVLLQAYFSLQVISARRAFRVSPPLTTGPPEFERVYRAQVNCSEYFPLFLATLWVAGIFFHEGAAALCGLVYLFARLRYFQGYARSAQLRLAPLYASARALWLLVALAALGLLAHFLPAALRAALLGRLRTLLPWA
Protocol: To investigate the effect of LCMs on LTC4S activity, we used microsomal membranes from HEK-293 cells stably expressing LTC4S[70]. […] The conversion of LTA4 to LTC4 methyl esters was initiated by addition of LTA4 methyl ester (Cayman Chemicals; 1 µM). After 10 min at 4 °C, the reaction was terminated by ice-cold methanol (one volume), and LTC-d5 methyl ester (5 ng; Cayman Chemicals) was added as internal standard. LTC4 was extracted and analyzed by UPLC-MS/MS as described for lipid mediators. Vehicle (DMSO)-treated microsomal membranes produced 7.1 ± 0.5 nmol LTC4.

Cc1c(C)c2c(c(C)c1O)CC[C@@](C)(CCCC(C)CCCC(C)CCCC(C)C(=O)O)O2 (stereo partly drawn) [4a, 13-((2R)-6-hydroxy-2,5,7,8-tetramethylchroman-2-yl)-2,6,10-trimethyltridecanoic acid]
IC50 (5-LO): 0.08 µM | IC50 [1]: 9.9 µM

— paper PMC6148290, “Endogenous metabolites of vitamin E limit inflammation by targeting 5-lipoxygenase” (Nature Communications, 2018)
